# Data from patent publication US20260183411A1, “TARGETING SORTILIN” (priority 2024, published 2026).
# Where a SMILES comes first, the peptide text is derived from it.
# T1: SORT1 (Sortilin), Acrobiosystems SON-H52H5 (human, UniProt Q99523 78-755, biotinylated 1:1 with NHS-PEG4 Biotin when immobilised in the protein-loaded GCI format)
# T1 construct: Used in FP, GCI and the peptide microarray; also called SORT1-Ag; SORT1 antigen
# T1 sequence (looked up): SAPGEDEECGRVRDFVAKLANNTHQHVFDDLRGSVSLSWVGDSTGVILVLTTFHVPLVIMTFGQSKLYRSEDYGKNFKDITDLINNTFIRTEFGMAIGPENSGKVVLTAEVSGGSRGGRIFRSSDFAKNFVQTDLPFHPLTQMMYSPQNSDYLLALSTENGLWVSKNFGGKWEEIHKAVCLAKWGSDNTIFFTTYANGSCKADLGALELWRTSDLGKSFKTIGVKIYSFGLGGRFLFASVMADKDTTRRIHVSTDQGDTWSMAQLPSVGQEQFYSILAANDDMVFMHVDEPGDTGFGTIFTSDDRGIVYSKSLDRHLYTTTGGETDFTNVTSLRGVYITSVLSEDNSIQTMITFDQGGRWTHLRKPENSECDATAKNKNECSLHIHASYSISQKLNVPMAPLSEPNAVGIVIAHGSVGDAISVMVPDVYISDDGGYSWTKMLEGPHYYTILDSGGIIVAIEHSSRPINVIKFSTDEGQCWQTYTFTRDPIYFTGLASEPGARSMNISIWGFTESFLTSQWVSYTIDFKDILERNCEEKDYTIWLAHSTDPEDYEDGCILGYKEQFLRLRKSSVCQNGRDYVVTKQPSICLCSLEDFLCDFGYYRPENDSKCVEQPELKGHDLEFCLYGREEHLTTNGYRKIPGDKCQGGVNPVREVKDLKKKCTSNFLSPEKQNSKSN
# Assays:
# [1] = Murine plasma stability assay; assay type: in vitro ADME; conditions: mouse, 2 μM, 37° C., read-out: Murine plasma stability assay, T1/2
# Method: Frozen plasma was thawed at 37° C. and centrifuged at 4000 rpm to remove any clots and transferred to 96-well reaction plates by WuXi AppTec. Test compounds were added to the reaction plate at a final concentration of 2 μM and either stopped immediately or incubated at 37° C. for 5 minutes, 10 minutes, 30 minutes, 60 minutes, or 120 minutes. At the end of incubation, stop solution consisting of 200 ng/mL tolbutamide and 200 ng/mL labetalol in ACN was added to precipitate protein and mixed thoroughly. Samples were then transferred to a bioanalysis plate and shaken for 10 minutes prior to HPLC-MS/MS analysis of percent remaining compound.
# Table 14 tabulates the plasma stability for each of the three PDCs tested.
# MDA-MB-231 xenograft = experiment: MDA-MB-231 murine xenograft efficacy model; assay type: in vivo, mouse
# Method: Murine xenograft experiments were conducted at WuXi AppTec and/or Charles River Laboratories and the care and use of animals was conducted in accordance with the regulations of the Association for Assessment and Accreditation of Laboratory Animal Care (AAALAC). MDA-MB-231 tumor cells (ATCC, Manassas, VA, cat #HTB-26) were grown and maintained in L15 medium supplemented with 10% heat inactivated fetal bovine serum, 1% Antibiotic-Antimycotic, and L-glutamine (2 mM) at 37° C. in an atmosphere in 5% CO2, 95% air. BALB/c Nude, female, 6-8 weeks, weighing approximately 18-22 g were purchased from Vital River Laboratory Animal Technology Co., LTD. Mice were inoculated subcutaneously at the right flank with MDA-MB-231 tumor cells (e.g., triple negative breast cancer cells) (10×10^6) in 0.2 mL of PBS with Matrigel (1:1) for tumor development. Animals were randomized and treatment was started when the average tumor volume reached approximately 150-200 mm^3 for the efficacy study. Dosing volume was adjusted based on body weight and was administered at 10 mL/Kg. […] Free MMAE payload was also tested, and similarly dissolved in 25 mM Histidine 10% sucrose pH 7 and one or more of the following doses, 0.6, 0.06 mg/kg, were administered to the mice i.v. at a QW×4 schedule. Tumor sizes were measured twice weekly in two dimensions using a caliper, and the volume in mm^3 calculated using the formula: V=0.5 a×b^2, where a and b are the long and short diameters of the tumor, respectively. TGI was calculated for each group using the formula: TGI (%)=[1−(Ti−T0)/(Vi−V0)]×100; where Ti is the average tumor volume of a treatment group on a given day, TO is the average tumor volume of the treatment group on the first day of treatment, Vi is the average tumor volume of the vehicle control group on the same day with Ti, and V0 is the average tumor volume of the vehicle group on the first day of treatment.
# To characterize the effects of the MMAE payload alone, we included free MMAE at molar equivalency to PDCs, and tested at 0.6 and 0.06 mg/kg, as separate arms.
# To characterize the effects of the MMAE payload alone, we included free MMAE at molar equivalency to PDCs, and tested at 0.6 mg/kg.
# [2] = Murine hematotoxicity assay; assay type: in vivo, mouse; conditions: 3 mg/kg i.v. QW×4, BALB/c mice
# Method: (§1) Murine hematotoxicity experiments were conducted at Charles River Laboratories and the care and use of animals was conducted in accordance with the regulations of the Association for Assessment and Accreditation of Laboratory Animal Care (AAALAC). Wild type BALB/c, female, 7-8 weeks, weighing approximately 18-22 g were randomized and dosed intravenously with control or test articles at a QW×4 schedule. Dosing volume was adjusted based on body weight and was administered at 10 mL/Kg. PDCs were dissolved in 25 mM Histidine 10% sucrose pH 7 and 3 mg/kg was administered. Free MMAE payload was also tested, and similarly dissolved in 25 mM Histidine 10% sucrose pH 7 and administered to the mice at a dose of […] by i.v. injection at a QW×4 schedule. 3 days following each dose, 150 μL of whole blood was collected via submandibular method and placed in K2 EDTA tubes stored on ice. Blood neutrophil counts were performed on the day of collection by IDEXX labs. Body weights were recorded twice a week until study endpoint.
# as §1, with “As outlined in the material” for “Murine hematotoxicity experiments were conducted at Charles River Laboratories”, “methods” for “the care and use”, “Example 1, wild” for “animals was conducted in accordance with the regulations of the Association for Assessment and Accreditation of Laboratory Animal Care (AAALAC). Wild”, “PDCs were dissolved in 25 mM Histidine 10% sucrose pH 7 and 3 mg/kg was administered.” left out
# Cyno SORT1 = experiment: SPR binding, Cyno SORT1; conditions: unconjugated peptide w/conjugation handles
# Method: SPR analysis was performed on Series S CM5 chips (Cytiva) using a Biacore 8K instrument (Cytiva). Sensorgrams were double-referenced by subtracting the response on both a reference flow cell and a blank sample. Human SORT1 (78-755)-His (Acrobiosystems), human SORT1 (78-755)-His(GenScript), mouse SORT1 (76-753)-His (R&D Systems), rat SORT1 (76-752)-His (GenScript), and cyno SORT1 (76-753)-His (GenScript) were diluted to 20-60 μg/mL in 10 mM sodium acetate pH 4.5 buffer and immobilized onto Series S CM5 chips using amine coupling at a flow rate of 10 μL/min for 45-100 s.
# For the single-cycle kinetics analysis runs, a running buffer of 1×PBS pH 7.4, 0.005% Tween-20 was used. Ten start-up cycles and a blank cycle preceded each analysis run. […] The kinetic rate constants (ka and kd) and the equilibrium binding constant (Kd) were calculated using a 1:1 kinetic binding model on the Biacore Insight Evaluation Software (Cytiva).
# SPR analysis was performed on Series S CM5 chips (Cytiva) using a Biacore 8K instrument (Cytiva). […] The kinetic rate constants (ka and […]) and the equilibrium binding constant (Kd) were calculated using a 1:1 kinetic binding model on the Biacore Insight Evaluation Software (Cytiva). […] The SORT1 affinities of the conjugates were determined to be peptide 2 conjugate >peptide 1 conjugate >peptide 3 conjugate.
# GAPDH mRNA [3] = experiment: GAPDH mRNA knockdown in HEK293 cells (RT-qPCR); assay type: cell-based
# Method: (§2) These GAPDH siRNA-peptide conjugates were then evaluated in HEK293 cells and the neuronal cell line, neuro2A.
# GAPDH mRNA [4] = experiment: GAPDH mRNA knockdown in differentiated Neuro-2a cells (RT-qPCR); assay type: cell-based
# Method: as §2
# [5] = molecular target: T1, SORT1 (Sortilin), Acrobiosystems …; experiment: fluorescence polarization, direct titration of the FAM-labelled peptide with SORT1
# Method: A 12-point, two-fold dilution series of target protein was prepared in a V-bottom 96-well plate for a total volume of 25 μL.
# A 10× working solution of FAM-labeled peptides was prepared in the FP buffer (1×PBS, pH 7.4, 0.1% Tween-20). An aliquot of 2.5 μL of the 10× working solution of the FAM-labeled peptides was then added to 22.5 μL of the SORT1 dilution series and pipetted to mix in a V-bottom 96-well plate. A negative control with no target protein was also prepared to assess baseline polarization of the FAM-labeled peptides. […] The data was then fitted to a One Site-Specific Binding curve in GraphPad to calculate the KD.
molecule,measurement,setting,value
CCCC[C@@H]1NC(=O)[C@H](CCCNC(=N)N)NC(=O)[C@H](CCCCNC(=O)CN(C)C(=O)CN(C)C(=O)CN(C)C(=O)CN(C)C(=O)CCNC(=O)CCCC(=O)N[C@H](C(=O)N[C@@H](CCCNC(N)=O)C(=O)Nc2ccc(COC(=O)N(C)[C@H](C(=O)N[C@H](C(=O)N(C)[C@@H]([C@@H](C)CC)[C@@H](CC(=O)N3CCC[C@H]3[C@H](OC)[C@@H](C)C(=O)N[C@H](C)[C@@H](O)c3ccccc3)OC)C(C)C)C(C)C)cc2)C(C)C)NC(=O)[C@H](CC(N)=O)NC(=O)[C@H](CCC(=O)O)NC(=O)[C@@H](NC(=O)[C@H](Cc2c[nH]c3ccccc23)NC(=O)[C@H](CCCNC(=N)N)NC(C)=O)CSSC[C@@H](C(=O)N[C@@H](CCCNC(=N)N)C(=O)N[C@@H](CCC(N)=O)C(=O)N[C@H](C(=O)N[C@@H](CC(C)(C)C)C(=O)O)C(C)(C)C)NC(=O)[C@H]([C@@H](C)O)NC(=O)[C@H](Cc2ccccc2)NC1=O [Arb_cyclic_G23-PDC],half-life,[1],57.4 min
same,tumor growth inhibited relative to vehicle,"MDA-MB-231 xenograft; 3 mg/kg i.v. QW×4, day 22",68%
same,body weight loss (Example 8),"MDA-MB-231 xenograft; PDCs 3 mg/kg, free MMAE at molar equivalency (0.6 mg/kg)",body weight loss tracked each other
same,blood neutrophil counts compared to vehicle or MMAE treatment,[2],reduced neutrophil counts
CC(C)C[C@H](NC(=O)[C@H](C)NC(=O)[C@@H]1CCCN1C(=O)[C@H](CC(=O)O)NC(=O)[C@H](CCCNC(=N)N)NC(=O)[C@H](CC(C)C)NC(=O)[C@@H]1CCCN1C(=O)[C@H](C)NC(=O)[C@H](CC(=O)O)NC(=O)[C@H](Cc1c[nH]c2ccccc12)NC(=O)[C@H](CCCNC(=N)N)NC(=O)[C@@H]1CCCN1C(=O)[C@H](C)N)C(=O)N[C@@H](CCCNC(=N)N)C(=O)N[C@@H](CCC(N)=O)C(=O)N[C@H](C(=O)N[C@@H](CC1CCC1)C(=O)O)C(C)(C)C [SORT1 peptide 2],Cyno Ka Kd,Cyno SORT1,0.152 nM
"CCCC[C@@H]1NC(=O)[C@H](CCCNC(=N)N)NC(=O)[C@H](CCCCN)NC(=O)[C@H](CC(N)=O)NC(=O)[C@H](CCC(=O)O)NC(=O)[C@@H](NC(=O)[C@H](Cc2c[nH]c3ccccc23)NC(=O)[C@H](CCCNC(=N)N)NC(C)=O)CSSC[C@@H](C(=O)N[C@@H](CCCNC(=N)N)C(=O)N[C@@H](CCC(N)=O)C(=O)N[C@H](C(=O)N[C@@H](CC(C)(C)C)C(=O)O)C(C)(C)C)NC(=O)[C@H]([C@@H](C)O)NC(=O)[C@H](Cc2ccccc2)NC1=O [SORT1 peptide 3] (HELM PEPTIDE1{[ac].R.W.C.E.N.K.R.[Nle].F.T.C.R.Q.[CC(C)(C)[C@H](N[*:1])C(=O)[*:2]].[CC(C)(C)C[C@H](N[*:1])C(=O)O]}$PEPTIDE1,PEPTIDE1,4:R3-12:R3$$$V2.0; N-terminus and C-terminus assumed)",Cyno Ka Kd,Cyno SORT1,0.191 nM
Ac-C(bAla)(Sar)(Sar)(Sar)(Sar)APRWDAPLRDPALRQ(B13)(G48) (CXXXXXAPRWDAPLRDPALRQXX; N-methyl; non-natural residues; cyclised or stapled) [Peptide 2-GAPDH6-SPDP],GAPDH mRNA % knockdown compared to untreated cells,GAPDH mRNA [3]; HEK293 + CQ,80%
same,GAPDH mRNA % knockdown compared to untreated cells,GAPDH mRNA [3]; HEK293 − CQ (chloroquine),0%
same,GAPDH mRNA % knockdown compared to untreated cells,GAPDH mRNA [4]; Neuro2a + CQ,0%
same,GAPDH mRNA % knockdown compared to untreated cells,GAPDH mRNA [4]; Neuro2a − CQ,3%
{FAM}-QRLARLPRDLLAWPPAD-OH (also called negative control peptide) [PRGN_scr],binding result,[5],no binding
